Measurements as given in patent US20250296922A1, “POLYSUBSTITUTED PYRROLIDINE DERIVATIVE, PREPARATION METHOD THEREFOR AND USE THEREOF” (SHANGHAI WENNAI THERAPEUTICS CO LTD, priority 2023, published 2025).

Experiments:
[1] = Stability of the compound in liver microsomes (rat); format: in vitro ADME, SD rat; details: 1 μM compound, 0.5 mg protein/mL
Protocol: 2.1.1. working solution: 5 μL of test or control compound stock solution (10 mM DMSO solution) was diluted with 495 μL of acetonitrile (ACN) to obtain an intermediate stock solution (100 μM, 99% ACN).
2.2.2 Preparation procedure: An appropriate amount of NADPH powder was weighed and diluted with 10 mM MgCl2 buffer (working solution concentration: 10 mM; final reaction system concentration: 1 mM).
2.3.2 Preparation procedure: The appropriate concentration of liver microsomal working solution was prepared in 100 mM potassium phosphate buffer;
Acetonitrile (ACN) solution at 4° C. containing 200 ng/mL of Tolbutamide and 200 ng/ml of labetalol as internal standards 2.5. Operation steps:
2.5.2. Diluting liver microsomes with 100 mM potassium phosphate buffer to a concentration of 0.56 mg/mL.
2.5.3. Transferring 445 μL of liver microsomal working solution (0.56 mg/mL) to pre-heated incubation plates T60 and NCF60, and then pre-heating the incubation plates T60 and NCF60 for 10 minutes at 37° C. with shaking. Transferring 54 μL of liver microsomes to each well of the blank plate, adding 6 μL of NAPDH coenzyme solution to the blank plate, and finally transferring 180 μL of termination solution to the blank plate.
2.5.4 Adding 5 μL of compound working solution (100 μM) to the incubation plates T60 and NCF60 containing liver microsomes and mixing three times.
2.5.5. Adding 50 μL of buffer to the NCF60 plate and mixing three times, starting the timer and incubating at 37° C. for 60 min with the plate shaking.
2.5.6. Adding 180 μL of quenching solution and 6 μL of NAPDH coenzyme working solution sequentially to quenching plate TO, making sure that the plate was cold to prevent volatilization of the incubation solution.
2.5.7. For plate T60, mixing well three times and immediately transferring 54 μL of mixing solution (0-min time point) to quenching plate TO, then adding 44 μL of NAPDH coenzyme working solution to incubation plate T60. Starting the timer:
2.5.8. At the 5, 15, 30, 45 and 60 minute time points, adding 180 μL of quenching solution to the quenching plate and transferring 60 μL of reaction solution from the T60 plate to the quenching plate at each time point.
2.5.9. For NCF60 plates, mixing well and transferring 60 μL of reaction solution from the NCF60 incubating solution to a quenching plate containing 180 μL of quenching solution at 60th minute.
2.5.10. All plates were mixed on a shaker for 10 min and then centrifuged at 4000 rpm at 4° C. for 20 min.
2.5.11. Transferring 80 μL of supernatant to 240 μL of HPLC water and mixing on a
2.6.1. Calculating t1/2 and Clint (mic) values based on first-order elimination kinetics: […]

[2] = Pharmacokinetic experiment, dog test, intravenous injection; format: in vivo; details: male Beagle, 0.5 mg/kg
From the text: 4.2.1 Abstract: Beagle was used as the test animal, the LC/MS/MS method was applied to determine the drug concentration in the plasma of Beagle at different points after intravenous injection of the compounds of the examples, to study the pharmacokinetic behavior of the compounds of the present invention in the Beagle, and to evaluate their pharmacokinetic characteristics.
4.2.2.2 Test animals: 4 male Beagles, provided by Jiangsu LingfuZhaoshengyuan Biotechnology Co. Fasting started at 5 p.m. on the day before drug administration, and the duration of fasting was no less than 12 hours, and food was resumed 4 hours after drug administration.
4.2.2.3 Drug Preparation: Weighed an amount of the test compound and prepared a completely clear solution with a final concentration of 1 mg/mL using a mixed solvent of DMSO: Solutol: Saline (5%: 5%: 90%).
4.2.2.4 Administration: a dose of 0.5 mg/kg, a volume of 0.5 mL/kg.
4.2.3 Test operation: 0.4 mL of blood samples were collected from the forelimb vein of male Beagles before and 5 min, 15 min, 30 min, 1 h, 2h, 4 h, 6h, 8 h, 10 h and 24 h after intravenous administration and placed in EDTA-K2 anticoagulant tubes. After blood samples were collected, they were placed in labelled centrifuge tubes in ice water bath and rapidly centrifuged to separate the plasma. Centrifugation conditions: 4000 rpm, 10 min, 4° C., and the plasma was placed at −70° C. or below for measurement.
Plasma samples were thawed at room temperature and 50 μL was added to 400 μL of acetonitrile containing the internal standard (40 ng/mL, terfenadine), vortexed for 1 min and then centrifuged at 15400 g for 10 min at 4° C. The supernatant was diluted 10-fold with 80% acetonitrile in water and 1 μL sample was injected for analysis.

Molecule | half-life at 1 μM ([1]; Sprague-Dawley, rat, liver microsomes, 37° C., read-out: Rat liver microsomes T½) [h] | Rat liver microsomes Residual (T = 60 min) ([1]; T = 60 min) [%] | AUC(0-t) ([2]; dog, plasma, read-out: Area under the curve AUC0-t) [ng·h/mL] | clearance ([2]; dog, plasma, read-out: Clearance CL (converted)) [mL/min/kg] | half-life ([2]; dog, plasma, read-out: half-life t½ (converted)) [h] | Area under the curve AUC0-t [2] [ng·h/mL] | Clearance CL [2] [mL/min/kg] | half-life t½ [2] [h]
COc1c([C@H]2[C@H](C(=O)Nc3ccnc(C(N)=O)c3)O[C@@](C)(C(F)(F)F)[C@H]2C)ccc(F)c1F [VX-548, reference compound] | 0.278 | 8.5 | 11100 | 0.438 | 19.7 | – | – | –
4-((2R,3S,4S,5R)-3-(3,4-difluoro-2-(methoxy-d3)phenyl)-4,5-dimethyl-5-(trifluoromethyl) pyrrolidine-2-carboxamido)pyridinamide [Compound 11] | – | – | – | – | – | 15644 | 0.134 | 57.4
